Laboratory results published in US20100209513A1, “PHARMACEUTICAL COMPOSITION CONTAINING MICRONIZED PARTICLES OF NAPHTHOQUINONE-BASED COMPOUND” (priority 2007, published 2010).

Tests used:
Type in all cases: in vivo
[1] = Body weight change in ob/ob mice, effect of sucrose palmitate on micronized cryptotanshinone (Example 11); details: cryptotanshinone 400 mg/kg in admixture with the feed for 20 days
Method: (§1) In order to ascertain whether sucrose palmitate which is an emulsifier maintains a particle size of micronized particles of cryptotanshinone, prevents the particle agglomeration or aggregation, and enhances therapeutic efficacy of cryptotanshinone, an animal experiment was carried out as follows.
(§2) 10-week-old ob/ob male mice (Jackson Lab) as an obese mouse model of type 2 diabetes were purchased from Orient Co., Ltd., Korea and were allowed to acclimate to a new environment of the breeding room for 10 days prior to experiments. Animals were fed a solid feed (P5053, Labdiet) as a laboratory animal chow. The ob/ob male mice were housed and allowed to acclimate to a new environment for 10 days, in a breeding room maintained at a temperature of 22±2° C., humidity of 55±5%, and a 12-h light/dark (L/D) cycle (light from 8:00 am. to 8:00 p.m.). According to a randomized blocks design, the thus-acclimated animals were randomly divided into four groups, each consisting of 7 animals: a control group with no administration of any drug sample, a group with administration of a vehicle (sucrose palmitate) only, a group with administration of cryptotanshinone (400 mg/kg), and a group with administration of cryptotanshinone (400 mg/kg) plus sucrose palmitate. Each group of animals was given drug samples in admixture with the feed for 20 days. […]

[2] = Body weight change in ob/ob mice, effect of chitosan on micronized cryptotanshinone (Example 10); details: ob/ob male mice; cryptotanshinone 400 mg/kg in admixture with the feed for 20 days
Method: In order to ascertain whether chitosan maintains a particle size of micronized particles of cryptotanshinone, prevents the particle agglomeration or aggregation, and enhances therapeutic efficacy of cryptotanshinone, an animal experiment was carried out as follows.
(§3) 10-week-old ob/ob male mice (Jackson Lab) as an obese mouse model of type 2 diabetes were purchased from Orient Co., Ltd., Korea and were allowed to acclimate to a new environment of the breeding room for 10 days prior to experiments. Animals were fed a solid feed (P5053, Labdiet) as a laboratory animal chow. The ob/ob male mice were housed and allowed to acclimate to a new environment for 10 days, in a breeding mom maintained at a temperature of 22±2° C., humidity of 55±5%, and a 12-h light/dark (L/D) cycle (light from 8:00 am. to 8:00 p.m.). According to a randomized blocks design, the thus-acclimated animals were randomly divided into four groups, each consisting of 7 animals: a control group with no administration of any drug sample, a group with administration of a vehicle (chitosan) only, a group with administration of cryptotanshinone (400 mg/kg), and a group with administration of cryptotanshinone (400 mg/kg) plus chitosan. Each group of animals was given drug samples in admixture with the feed for 20 days. All animals were allowed ad libitum access to water and standard laboratory chow throughout the study period.

[3] = Body weight change in DIO C57BL/6 mice, effect of phosphatidylcholine on micronized cryptotanshinone (Example 8); details: DIO C57BL/6 male mice; cryptotanshinone 150 mg/kg PO for 40 days
Method: as §1, with “phosphatidylcholine (PC)” for “sucrose palmitate”, “a phospholipid” for “an emulsifier”
For this purpose, 5-week-old C57BL/6 male mice were purchased from Orient Co., Ltd., Korea and were allowed to acclimate to a new environment of the breeding room for 10 days prior to experiments. A DIO (diet-induced obesity) mouse model was established by supplying to animals high-fat diet for 8 weeks. 13-week-old male mice weighing 40 g were used in experiments. Animals were fed a high-fat feed (45 kcal % fat) (D12451, Research Diets Inc., New Brunswick, N.J.) as a laboratory animal chow. The DIO mice were housed and allowed to acclimate to a new environment for 10 days, in a breeding room maintained at a temperature of 22±2° C., humidity of 55±5%, and a 12-h light/dark (L/D) cycle (light from 8:00 a.m. to 8:00 p.m.). […]

[4] = Body weight change in ob/ob mice, effect of calcium silicate on micronized cryptotanshinone (Example 9); details: ob/ob male mice; cryptotanshinone 400 mg/kg in admixture with the feed for 20 days
Method: In order to ascertain whether calcium silicate maintains a particle size of micronized particles of cryptotanshinone, prevents the particle agglomeration or aggregation, and enhances therapeutic efficacy of cryptotanshinone, an animal experiment was carried out as follows.
as §2, with “(calcium silicate)” for “(sucrose palmitate)”, “calcium silicate.” for “sucrose palmitate.”

[5] = Body weight change in ob/ob mice, intestine-targeted formulation of micronized β-lapachone (Example 14); details: ob/ob male mice; 200 mg/kg in terms of β-lapachone content PO once a day
Method: In order to confirm therapeutic efficacy of β-lapachone {7,8-dihydro-2,2-dimethyl-2H-naphtho(2,3-b)dihydropyran-7,8-dione} when micronized particles of β-lapachone was prepared into a formulation of an intestine-targeted drug delivery system, an animal experiment was carried out as follows.
0.2 g of sodium lauryl sulfate (SLS) and 10 g of β-lapachone were mixed and ground. To the resulting mixture were added approximately an equal amount of a water-soluble polymer (hydroxypropyl methylcellulose) relative to β-lapachone, and vehicles such as Croscarmellose sodium and light anhydrous silicic acid, followed by spray drying. Then, the spray-dried product was added to an ethanol solution containing about 20% by weight of Eudragit S-100 as a pH-sensitive polymer and about 2% by weight of PEG #6,000 as a plasticizer, and the mixture was then spray-dried to prepare intestine-targeted formulations.
In order to confirm the efficacy of each formulation, 200 mg/kg of the formulation in terms of β-lapachone content was administered to ob/ob mice once a day and changes in the body weight (BW) of animals were examined.
For this purpose, 10-week-old ob/ob male mice (Jackson Lab) as an obese mouse model of type 2 diabetes were purchased from Orient Co., Ltd., Korea and were allowed to acclimate to a new environment of the breeding room for 10 days prior to experiments. […]

[6] = Body weight change in ob/ob mice, micronized particles of tanshinone IIA (Example 13); details: ob/ob male mice; 400 mg/kg plus sodium lauryl sulfate in admixture with the feed for 20 days
Method: In order to confirm therapeutic efficacy of micronized particles of tanshinone IIA, an animal experiment was carried out as follows.
as §3, with “For this purpose, 10-week-old” for “10-week-old”, “room” for “mom”, “(sodium lauryl sulfate)” for “(chitosan)”, “tanshinone IIA (before microparticulation, 400 mg/kg) plus sodium lauryl sulfate,” for “cryptotanshinone (400 mg/kg),”, “micronized particles of tanshinone IIA” for “cryptotanshinone”, “sodium lauryl sulfate.” for “chitosan.”

[7] = Body weight change in ob/ob mice, micronized particles of 15,16-dihydrotanshinone (Example 12); details: ob/ob male mice; 400 mg/kg plus sodium lauryl sulfate in admixture with the feed for 20 days
Method: In order to confirm therapeutic efficacy of micronized particles of 15,16-dihydrotanshinone, an animal experiment was carried out as follows.
as §2, with “For this purpose, 10-week-old” for “10-week-old”, “(sodium lauryl sulfate)” for “(sucrose palmitate)”, “15,16-dihydrotanshinone (before microparticulation, 400 mg/kg) plus sodium lauryl sulfate,” for “cryptotanshinone (400 mg/kg),”, “micronized particles of 15,16-dihydrotanshinone” for “cryptotanshinone”, “sodium lauryl sulfate.” for “sucrose palmitate.”

## C[C@H]1COC2=C1C(=O)C(=O)c1c2ccc2c1CCCC2(C)C [Cryptotanshinone alone, cryptotanshinone]
[1]
  Final BW: 53.2 ± 1.3 g
[2]
  Final BW: 53.2 ± 1.3 g
[3]
  Final BW: 40.2 ± 1.3 g
[4]
  Final BW: 53.2 ± 1.3 g

## CC1(C)CCC2=C(O1)c1ccccc1C(=O)C2=O [Simply finely-divided powder, β-lapachone]
[5]
  Final BW: 57.5 ± 1.3 g

## Cc1coc2c1C(=O)C(=O)c1c-2ccc2c1CCCC2(C)C [Tanshinone IIA before microparticulation, tanshinone IIA]
[6]
  Final BW: 58.4 ± 3.3 g

## Cc1cccc2c3c(ccc12)C1=C(C(=O)C3=O)C(C)CO1 (stereo not shown) [15,16-dihydrotanshinone]
[7]
  Final BW: 55.4 ± 3.1 g
